Assay results from patent publication US8969336B2, “Diamino heterocyclic carboxamide compound” (Astellas Pharma Inc., priority 2009, dated 2015).
pIC50: −log10 of the molar value.

How the values were obtained:
[1] = system: human non-small cell lung cancers cell line NCI-H2228 cells; assay: Antitumor test (in vivo) on NCI-H2228 cells; settings: NOD/SCID mice
Excerpt: The antitumor effects on EML4-ALK fusion protein-dependent cells can also be confirmed by use of human non-small cell lung cancers cell line NCI-H2228 cells (cells derived from EML4-ALK fusion polynucleotide-positive lung cancer patients (EML4-ALK fusion protein v3-dependent cells)) in place of the EML4-ALK fusion protein v1 expressing 3T3 cells of Test Example 3, as shown below.
3×10^6 cells of NCI-H2228 cells suspended in 50% Matrigel (Invitrogen) were inoculated subcutaneously by injection to the back of 5 weeks old male NOD/SCID mice (Charles River Japan, Inc.). After 3 weeks of the inoculation, the administration of test compounds was initiated. The test was conducted in the solvent group and test compound groups, 6 animals per group. The test compounds were each dissolved in a solvent composed of 10% 1-methyl-2-pyrrolidinone (SIGMA-ALDRICH Inc.)/90% polyethylene glycol 300 (Fluka Inc.) and administered orally at a dose of 1 mg/kg. Administrations were performed once a day for 14 days, and body weight and tumor size were measured every other day. Tumor volume was calculated using the following formula. [Tumor volume(mm^3)]=[Tumor major axis(mm)]×[tumor minor axis(mm)]^2×0.5

[2] = target: EML4-ALK fusion protein v1 (Homo sapiens (Human), UniProt Q9UM73); assay: Inhibitory activity against the kinase activity of EML4-ALK fusion protein (HTRF KinEASE-TK); format: biochemical; settings: ATP 100 μM, reaction 1 hour
Chain of EML4-ALK fusion protein v1 (Q9UM73 other isoform, or with tags, fused parts or gaps): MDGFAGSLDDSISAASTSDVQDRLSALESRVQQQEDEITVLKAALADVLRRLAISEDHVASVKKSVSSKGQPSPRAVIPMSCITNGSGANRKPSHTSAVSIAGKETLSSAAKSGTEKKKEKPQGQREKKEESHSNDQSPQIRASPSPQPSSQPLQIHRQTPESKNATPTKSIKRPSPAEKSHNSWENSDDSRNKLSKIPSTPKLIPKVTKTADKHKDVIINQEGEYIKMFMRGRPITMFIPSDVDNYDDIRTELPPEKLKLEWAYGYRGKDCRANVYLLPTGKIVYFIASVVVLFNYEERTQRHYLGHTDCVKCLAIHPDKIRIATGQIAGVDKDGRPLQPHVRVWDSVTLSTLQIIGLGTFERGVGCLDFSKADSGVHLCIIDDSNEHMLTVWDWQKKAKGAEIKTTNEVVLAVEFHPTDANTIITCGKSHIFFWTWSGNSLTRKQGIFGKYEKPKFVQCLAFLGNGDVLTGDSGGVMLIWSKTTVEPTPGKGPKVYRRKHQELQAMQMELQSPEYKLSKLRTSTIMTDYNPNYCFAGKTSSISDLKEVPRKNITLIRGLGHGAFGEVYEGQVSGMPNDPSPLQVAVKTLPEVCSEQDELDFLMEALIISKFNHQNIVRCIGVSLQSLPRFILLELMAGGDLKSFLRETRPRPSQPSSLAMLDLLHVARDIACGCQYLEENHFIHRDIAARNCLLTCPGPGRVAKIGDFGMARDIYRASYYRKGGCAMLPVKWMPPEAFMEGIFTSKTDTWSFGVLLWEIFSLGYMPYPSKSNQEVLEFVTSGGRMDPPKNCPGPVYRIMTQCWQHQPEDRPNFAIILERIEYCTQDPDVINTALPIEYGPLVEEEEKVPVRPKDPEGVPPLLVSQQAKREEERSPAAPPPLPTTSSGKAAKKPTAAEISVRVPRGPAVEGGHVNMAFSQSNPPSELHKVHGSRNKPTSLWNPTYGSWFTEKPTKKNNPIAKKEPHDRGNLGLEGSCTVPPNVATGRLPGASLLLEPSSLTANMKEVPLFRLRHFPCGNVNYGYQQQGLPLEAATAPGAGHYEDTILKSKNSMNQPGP
Excerpt: A recombinant retrovirus was created from expression plasmid FLAG-EML4-ALKv1/pMX-iresCD8 in which cDNA for EML4-ALK fusion protein v1 was integrated, and injected into mouse lymphoid cell line BA/F3 cells. Using a magnetic bead reagent for cell separation and a purification column (anti-CD8 monoclonal antibody immobilized on magnetic beads and a MiniMACS purification column; both are products of Miltenyi Biotec Inc.), cell surface CD8-expressing cells were purified to establish EML4-ALK fusion protein v1-expressing BA/F3 cells. From the cells, EML4-ALK fusion protein v1 was purified and subjected to kinase activity evaluation. EML4-ALK fusion protein v1 was investigated for its phosphorylation activity toward a peptide substrate by using a kinase activity detection kit (HTRF KinEASE-TK; Cisbio Inc.). […] The ATP concentration used was 100 μM.

[3] = system: BA/F3 cells expressing EML4-ALK fusion protein v1; assay: Growth inhibitory activity against EML4-ALK fusion protein-dependent cells; format: cell-based, mouse; settings: Mus musculus, BaF3, 48 h, growth of EML4-ALK fusion protein v1-expressing BA/F3 cells, cultured 2 days
Method: EML4-ALK fusion protein v1-expressing BA/F3 cells can grow in the absence of IL-3. In other words, they are cells that EML4-ALK fusion protein v1-dependently grow.
In a 96-well plate (Iwaki), BA/F3 cells expressing EML4-ALK fusion protein v1 were seeded at 500 cells per well in RPMI1640 medium (Invitrogen) containing 10% fetal bovine serum, followed by addition of a test compound (final concentration: 10 μM to 0.1 nM). As a negative control, DMSO used as a solvent of the test compound was added. Then, the cells were cultured under 5% CO2 at 37° C. for 2 days. A cell counting reagent (AlmarBlue; Biosource) was added, and the cells were cultured for 150 minutes, followed by measurement of fluorescence intensity with a […] (Safire; Tecan) in accordance with instructions attached to the reagent.

[4] = system: EML4-ALK fusion protein v1 expressing 3T3 cells; assay: Antitumor test (in vivo) on EML4-ALK fusion protein v1 expressing 3T3 cells; settings: oral 10 mg/kg once a day for 5 days, Balb/c nude mice, EML4-ALK v1 3T3 tumor; values marked (regression)
Excerpt: Expression plasmid EML4-ALKv1/pMXS in which cDNA for EML4-ALK fusion protein v1 was integrated was trasfected into 3T3 fibroblast cells by the phosphate calcium method to thereby establish EML4-ALK fusion protein v1 expressing 3T3 cells. 3×10^6 cells of EML4-ALK fusion protein v1 expressing 3T3 cells suspended in PBS were inoculated subcutaneously by injection to the back of 5 weeks old male Balb/c nude mice (Charles River Japan, Inc.). After 7 days of the inoculation, the administration of test compound was initiated. The test was conducted in the solvent group and the compound group, 4 animals per group. The test compound was suspended in a solvent composed of 0.5% methylcellulose and administered orally at a dose of 10 mg/kg. Administrations were performed once a day for 5 days, and body weight and tumor size were measured every other day. Tumor volume was calculated using the following formula. [Tumor volume(mm^3)]=[Tumor major axis(mm)]×[tumor minor axis(mm)]^2×0.5
When regression of tumor volume is induced from the day of starting administration, the tumor volume on the day of starting administration and the state in which the tumor disappeared were assumed to be 0% regression and 100% regression, respectively, and the rate of regression of the test compound was calculated.

RET protein = RET protein (Homo sapiens (Human), UniProt P07949); assay: Inhibitory activity against the kinase activity of RET protein; format: biochemical; settings: RET kinase domain, ATP 100 μM, reaction 30 minutes
Chain of RET protein (P07949 724-1016): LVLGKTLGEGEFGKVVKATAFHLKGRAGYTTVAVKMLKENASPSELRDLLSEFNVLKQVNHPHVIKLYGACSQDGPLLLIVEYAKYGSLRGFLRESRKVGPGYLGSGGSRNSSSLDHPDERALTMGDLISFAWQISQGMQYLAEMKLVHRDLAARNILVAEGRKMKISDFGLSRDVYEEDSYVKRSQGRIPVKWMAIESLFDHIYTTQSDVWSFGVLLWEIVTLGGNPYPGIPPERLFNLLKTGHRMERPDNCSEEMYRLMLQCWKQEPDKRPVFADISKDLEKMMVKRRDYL

ROS protein = ROS protein (Homo sapiens (Human), UniProt P08922); assay: Inhibitory activity against the kinase activity of ROS protein; format: biochemical; settings: ROS kinase domain, ATP 50 uM
Chain of ROS protein (P08922 1945-2222): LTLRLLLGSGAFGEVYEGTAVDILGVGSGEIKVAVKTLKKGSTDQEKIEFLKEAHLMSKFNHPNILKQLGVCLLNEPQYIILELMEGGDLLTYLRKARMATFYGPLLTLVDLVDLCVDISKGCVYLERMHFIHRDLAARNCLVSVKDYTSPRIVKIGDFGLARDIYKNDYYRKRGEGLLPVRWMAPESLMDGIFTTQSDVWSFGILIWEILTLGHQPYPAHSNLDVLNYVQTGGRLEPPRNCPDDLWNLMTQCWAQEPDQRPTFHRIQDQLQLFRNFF

| pIC50 (RET protein) | pIC50 (ROS protein) | Structure (SMILES) | growth inhibition against NCI-H2228 cells (tumor) compared with the solvent group ([1]; oral administration, Student's t-test) | pIC50 [2] | pIC50 [3] | inhibition rate of growth of tumor of NCI-H2228 cells ([1]; oral 1 mg/kg once a day for 14 days) [%] | rate of regression (tumor volume) [4] |
| --- | --- | --- | --- | --- | --- | --- | --- |
|  |  | CCc1nc(C(N)=O)c(Nc2cccc(C)c2)nc1NCCN(C)C [Compound Y, 5-{[2-(dimethylamino)ethyl]amino}-6-ethyl-3-[(3-methylphenyl)amino]pyrazine-2-carboxamide, reference compound] | no significant growth inhibition | < 6.00 | < 6.00 |  |  |
|  |  | CC(C)c1nc(C(N)=O)c(Nc2ccc(N3CCC(N4CCN(C)CC4)CC3)cc2)nc1NC1CCOCC1 [Example 549] |  | 8.68 | 7.85 | 69 | 67 (regression) % |
| 8.47 | 8.72 | CCc1nc(C(N)=O)c(Nc2ccc(N3CCC(N4CCN(C)CC4)CC3)c(OC)c2)nc1NC1CCOCC1 [Example 577] |  |  |  |  |  |
